Earlier results in US20140023728A1, “Iodine Liquid Soap, Dispenser and Method” (priority 2012, published 2014).
Read-outs that look alike come from different tables or passages of the source.

## II [Elemental iodine, iodine]
One gram in water at 20 degrees Celsius
  volume of water in which one gram dissolves: 3450 mL
One gram in water at 50 degrees Celsius
  volume of water in which one gram dissolves: 1280 mL
